For 31 compounds, ED50 results are on record in patent US20240383882A1 (Ecstasy LLC, priority 2020, published 2024).

The structures appear in SMILES notation. Structures can show the parent of a compound that is named as a salt.

In the first test the test system is male C57BL/6 mice. Put plainly: 55° C. warm-water tail-flick test (antinociception). Format: in vivo. The conditions noted are these: Mus musculus, sc, 0.5 h, compounds of Table I; s.c.; 30 min; 55° C. water; configuration tested as in Table II; read-out: ED50 (mg/kg) at 30 min on C57BL/6 mice in Warm-water Tail-flick Test. How it is done:
Antinociception was assessed using the 55° C. warm-water tail-flick test. The latency to the first sign of a rapid tail flick was taken as the behavioral endpoint. Each mouse was first tested for baseline latency by immersing its tail in the water and recording the time to response. Mice not responding within 2 secs were excluded from further testing. Responsive mice were then s.c. administered the test compound and tested for antinociception at 30 min, 60 min, 90 min, and 120 min time points afterward. Antinociception was calculated using the following formula: percentage of antinociception=100×(test latency−control latency)/(20−control latency).
The following new compounds were also made and tested to determine the half maximal possible effective dose, or ED50 (mg/kg), in mice, using one of: the warm water tail-flick test as in Table II, spared nerve injury, chronic constriction injury, or Complete Freund's adjuvant induced inflammatory pain. The symbols in the last column are: + indicates ED 50>50 mg/kg; ++ indicates ED 50 is less than or equal to 30 mg/kg.
(In hot-plate and tail-flick tests a longer latency is read as antinociception.)
Consider `CCOCC1(CCn2c(=O)n(CC(C)C)c3cc(F)c(F)cc32)CCN(C(C)(C)c2ccc(C)nc2)C1` (stereo not shown) [Compound 100], for which the ED50 was at most 30 mg/kg. The same measure, in the same setting: for `CCOCC1(CCn2cnc3cnccc32)CCN(C(C)(C)c2ccc(C)nc2)C1` (stereo not shown) [Compound 91, 1-(2-(3-(ethoxymethyl)-1-(2-(6-methylpyridin-3-yl)propan-2-yl)pyrrolidin-3-yl)ethyl)-1H-imidazo[4,5-c]pyridine citrate] the value was at most 30 mg/kg.

Still in this test, the particulars now being: Mus musculus, sc, 0.5 h, compounds of Table V; s.c.; 30 min; 55° C. water; read-out: ED50 (mg/kg) at 30 min on C57BL/6 mice in Warm-water Tail-flick Test (same conditions as Table II).
Take `CCOCC1(CCc2ccccc2)CCN(Cc2ccc(NC(=O)OC)cc2)CC1` [Compound 24]: the ED50 is over 50 mg/kg.

The test is the same for the next values; noted with them: Mus musculus; half maximal effective dose in mice; using one of: warm water tail-flick test, spared nerve injury, chronic constriction injury, or Complete Freund's adjuvant induced inflammatory pain (not stated which per compound); read-out: Biological Activity (ED50).
Turning to `CCOC(C(F)(F)F)[C@]1(CCc2ccc(C#N)s2)CCN(C(C)(C)c2ccccn2)C1` (single isomer, unassigned) [Compound 156, 5-(2-((R)-3-((R or S)-1-ethoxy-2,2,2-trifluoroethyl)-1-(2-(pyridin-2-yl)propan-2-yl)pyrrolidin-3-yl)ethyl)thiophene-2-carbonitrile], the ED50 is at most 30 mg/kg. Still for that read-out and setting: for `Cc1ccc(C(C)(C)N2CC[C@](CO)(CCc3ccc(C#N)cc3)C2)cn1` [Compound 18, (R)-4-(2-(3-(hydroxymethyl)-1-(2-(6-methylpyridin-3-yl)propan-2-yl)pyrrolidin-3-yl)ethyl) benzonitrile] the value was at most 30 mg/kg; for `CCOC(C(F)(F)F)[C@]1(CCc2ccc(C#N)cc2)CCN(C(C)(C)c2ccc(C)nc2)C1` (single isomer, unassigned) [Compound 170, 4-(2-((R)-3-((R or S)-1-ethoxy-2,2,2-trifluoroethyl)-1-(2-(6-methylpyridin-3-yl)propan-2-yl)pyrrolidin-3-yl)ethyl) benzonitrile], over 50 mg/kg; for `CC(C)(c1ccccn1)N1CC[C@@](CCc2ccc(C#N)cc2)(C(=O)O)C1` [Compound 138, (R)-3-(4-cyanophenethyl)-1-(2-(pyridin-2-yl)propan-2-yl)pyrrolidine-3-carboxylic acid], over 50 mg/kg. On the same count and under the same terms, with `CC1(C)COC1[C@]1(CCc2ccc(C#N)cc2)CCN(Cc2ncc(Cl)cn2)C1` (single isomer, unassigned) [Compound 210, 4-(2-((R)-1-((5-chloropyrimidin-2-yl)methyl)-3-((R or S)-3,3-dimethyloxetan-2-yl)pyrrolidin-3-yl)ethyl)benzonitrile] the figure was over 50 mg/kg. Turning to `CC(C)(c1ccccn1)N1CC[C@@](CCc2ccc3ccoc3c2)(c2nn[nH]n2)C1` [Compound 183, (R)-2-(2-(3-(2-(benzofuran-6-yl)ethyl)-3-(2H-tetrazol-5-yl)pyrrolidin-1-yl)propan-2-yl)pyridine], the ED50 is over 50 mg/kg. Still for that read-out and setting: for `CC(C)(c1ccccn1)N1CC[C@@](CCc2ccc(C#N)cc2F)(COCc2ccccc2)C1` [Compound 109, (R)-4-(2-(3-((benzyloxy)methyl)-1-(2-(pyridin-2-yl)propan-2-yl)pyrrolidin-3-yl)ethyl)-3-fluorobenzonitrile] the value was over 50 mg/kg. `Cc1cccc(C(C)(C)N2CC[C@@](CCc3ccc(C#N)cc3)(C(N)=O)C2)n1` [Compound 149, (R)-3-(4-cyanophenethyl)-1-(2-(6-methylpyridin-2-yl)propan-2-yl)pyrrolidine-3-carboxamide]: the ED50 is over 50 mg/kg. Same read-out and setting: for `Cc1ccc(C(C)(C)N2CC[C@@](CCc3ccc(C#N)cc3)(COCC(F)(F)F)C2)cn1` [Compound 26, (R)-4-(2-(1-(2-(6-methylpyridin-3-yl)propan-2-yl)-3-((2,2,2-trifluoroethoxy)methyl)pyrrolidin-3-yl)ethyl)benzonitrile] the value was over 50 mg/kg; for `CC(C)(c1ccccn1)N1CC[C@@](CCc2ccc(F)c(F)c2)(C(O)C(F)(F)F)C1` (single isomer, unassigned) [Compound 150, (R or S)-1-((R)-3-(3,4-difluorophenethyl)-1-(2-(pyridin-2-yl)propan-2-yl)pyrrolidin-3-yl)-2,2,2-trifluoroethan-1-ol], at most 30 mg/kg.

For `COc1ccc(CN2CC[C@@](CCc3ccc(C#N)cc3)(C3OCC3(C)C)C2)cc1` (single isomer, unassigned) [Compound 205, 4-(2-((R)-3-((R or S)-3,3-dimethyloxetan-2-yl)-1-(4-methoxybenzyl)pyrrolidin-3-yl)ethyl) benzonitrile], the ED50 was at most 30 mg/kg. The same measure, in the same setting: with `CC(C)(c1ccccn1)N1CC[C@](CO)(CCc2cnc(C(F)(F)F)nc2)C1` [Compound 190, (R)-(1-(2-(pyridin-2-yl)propan-2-yl)-3-(2-(2-(trifluoromethyl)pyrimidin-5-yl)ethyl)pyrrolidin-3-yl)methanol] the figure was over 50 mg/kg; with `Cc1ccc(C(C)(C)N2CC[C@@](CCc3ccc(C#N)cc3)(C(O)(C(F)(F)F)C(F)(F)F)C2)cn1` [Compound 165, (R)-4-(2-(3-(1,1,1,3,3,3-hexafluoro-2-hydroxypropan-2-yl)-1-(2-(6-methylpyridin-3-yl)propan-2-yl)pyrrolidin-3-yl)ethyl) benzonitrile], at most 30 mg/kg; with `CCOC[C@]1(CCc2ccc(S(C)(=O)=O)cc2)CCN(C(C)(C)c2ccc(Cl)cc2)C1` [Compound 221, (R)-1-(2-(4-chlorophenyl)propan-2-yl)-3-(ethoxymethyl)-3-(4-(methylsulfonyl)phenethyl) pyrrolidine], over 50 mg/kg.

`Fc1ccc(CC[C@@]2(C3CCO3)CCN(Cc3cccnc3)C2)cc1` (single isomer, unassigned) [Compound 12, 3-(((R)-3-(4-fluorophenethyl)-3-((R or S)-oxetan-2-yl)pyrrolidin-1-yl)methyl)pyridine]: the ED50 is at most 30 mg/kg. Same read-out and setting: with `CCOC(C(F)(F)F)(C(F)(F)F)[C@]1(CCc2ccc(C#N)cc2)CCN(C(C)(C)c2ccns2)C1` [Compound 22, (R)-4-(2-(3-(2-ethoxy-1,1,1,3,3,3-hexafluoropropan-2-yl)-1-(2-(isothiazol-5-yl)propan-2-yl)pyrrolidin-3-yl)ethyl) benzonitrile] the figure was at most 30 mg/kg. Same read-out and setting: with `CCOC(C(F)(F)F)(C(F)(F)F)[C@]1(CCc2ccc(C#N)cc2)CCN(Cc2ccc(C)nc2)C1` [Compound 8, (R)-4-(2-(3-(2-ethoxy-1,1,1,3,3,3-hexafluoropropan-2-yl)-1-((6-methylpyridin-3-yl)methyl)pyrrolidin-3-yl)ethyl) benzonitrile] the figure was over 50 mg/kg; with `CCOC[C@]1(CCc2ccc(C#N)cc2)CCN(Cc2cccnc2)C1` [Compound 3, (R)-4-(2-(3-(ethoxymethyl)-1-(pyridin-3-ylmethyl)pyrrolidin-3-yl)ethyl) benzonitrile], at most 30 mg/kg; with `COc1cccc(C(C)(C)N2CC[C@@](CCc3ccc(C#N)cc3)(C(=O)O)C2)c1` [Compound 143, (R)-3-(4-cyanophenethyl)-1-(2-(3-methoxyphenyl)propan-2-yl)pyrrolidine-3-carboxylic acid], over 50 mg/kg.

Take `N#Cc1ccc(CC[C@]2(CO)CCN(C(c3ccc(F)cc3)c3cccnc3)C2)cc1` (stereo partly shown) [Compound 64]: the ED50 is over 50 mg/kg.

Take `CC(C)(c1ccccn1)N1CC[C@@](CCc2ccc3ccoc3c2)(c2c[nH]nn2)C1` [Compound 191, (R)-2-(2-(3-(2-(benzofuran-6-yl)ethyl)-3-(1H-1,2,3-triazol-4-yl)pyrrolidin-1-yl)propan-2-yl)pyridine]: the ED50 was over 50 mg/kg. Same read-out and setting: for `CCOC(=O)[C@]1(CCc2ccc(C#N)cc2)CCN(C(C)(C)c2ccccn2)C1` [Compound 139, ethyl (R)-3-(4-cyanophenethyl)-1-(2-(pyridin-2-yl)propan-2-yl)pyrrolidine-3-carboxylate] the value was over 50 mg/kg; for `CC(C)(c1ccccn1)N1CC[C@@](CCc2ccc3ccoc3c2)(C(O)C(F)(F)F)C1` (single isomer, unassigned) [Compound 172, (R or S)-1-((R)-3-(2-(benzofuran-6-yl)ethyl)-1-(2-(pyridin-2-yl)propan-2-yl)pyrrolidin-3-yl)-2,2,2-trifluoroethan-1-ol], over 50 mg/kg. Still for that read-out and setting: for `N#Cc1ccc(CC[C@]2(COCc3ccccc3)CCN(C(c3cccnc3)c3cccnc3)C2)cc1` (single isomer, unassigned) [Compound 72] the value was over 50 mg/kg; for `CC(C)(c1ccccn1)N1CC[C@@](CCc2ccc3ccoc3c2)(COCc2ccccc2)C1` [Compound 164, (R)-2-(2-(3-(2-(benzofuran-6-yl)ethyl)-3-((benzyloxy)methyl)pyrrolidin-1-yl)propan-2-yl)pyridine], over 50 mg/kg; for `CC(C)(c1ccccn1)N1CC[C@](CCc2ccc(C#N)cc2)(c2ncc[nH]2)C1` [Compound 225, (S)-4-(2-(3-(1H-imidazol-2-yl)-1-(2-(pyridin-2-yl)propan-2-yl)pyrrolidin-3-yl)ethyl) benzonitrile], over 50 mg/kg. On the same count and under the same terms, for `CC(C)(c1ccccn1)N1CC[C@](CO)(CCc2ccc(C(F)(F)F)o2)C1` [Compound 189, (R)-(1-(2-(pyridin-2-yl)propan-2-yl)-3-(2-(5-(trifluoromethyl)furan-2-yl)ethyl)pyrrolidin-3-yl)methano] the value was over 50 mg/kg; for `CC1(C)COC1[C@]1(CCc2ccc(C#N)cc2)CCN(Cc2ccccn2)C1` (single isomer, unassigned) [Compound 192, 4-(2-((R)-3-((R or S)-3,3-dimethyloxetan-2-yl)-1-(pyridin-2-ylmethyl)pyrrolidin-3-yl)ethyl) benzonitrile], at most 30 mg/kg.
